Experimental data as given in US10905671B2, “Method of using omega 3 fatty acids to treat diseases which involve damage to the nervous system” (priority 2013, dated 2021).

Columns and labels:
[1] = test system: moderate thyroid eye disease; experiment: Patients with moderate thyroid eye disease (Example 5); format: in vivo, human; conditions: 3 patients; 10 mg
Description: The invention was used in 3 patients with moderate thyroid eye disease. The patients were controlled with 10 mg of prednisolone or with 7.5 g to 10 g of EPA and DHA and having a AA/EPA ratio between 1 to 1.5.

scleritis = experiment: Patients with scleritis (Example 3); format: in vivo, human; conditions: two patients; 10 mg

With C[C@]12C=CC(=O)C=C1CC[C@@H]1[C@@H]2[C@@H](O)C[C@@]2(C)[C@H]1CC[C@]2(O)C(=O)CO [prednisolone] the “control of thyroid eye disease” value [1] was “controlled”, the control of scleritis (scleritis) was “controlled” and the side effects (scleritis) was “had to stop due to the side effects”.
